Measured values as given in PubChem BioAssay AID1996.
≈ marks a conversion by molar mass, not a printed value.

Conditions: buffer; pH 7.4; 200.0 µM

| Compound | solubility kinetic [µg/mL] |
| --- | --- |
| CC(CCc1ccccc1)NS(=O)(=O)c1ccccc1F (configuration not stated) | 39 (≈ 127 µM) |
| CC(C#N)Sc1ccc(S(=O)(=O)N2CCCCC2)cn1 (configuration not stated) | 9.4 (≈ 30.2 µM) |
| CSc1ccccc1NC(=O)CN1c2ccccc2CC1C (configuration not stated) | 11.9 (≈ 38.1 µM) |
| Cc1cccc(OC(C)C(=O)OCC(=O)N2CCN(c3ccccc3)CC2)c1 (configuration not stated) | 43.4 (≈ 113 µM) |
| CC1CCCC(NC(=O)CCC(=O)NCc2ccccc2)C1C (configuration not stated) | 44.7 (≈ 141 µM) |
| COc1ccc(N/C(N)=N/c2nc(C)cc(=O)[nH]2)cc1 | 6.8 (≈ 24.9 µM) |
| CCCn1c(=O)cc(N)n(-c2ccc(OC(F)(F)F)cc2)c1=O | > 49.4 |
| Cc1cccc(C(=O)NC(C)c2ccc(-n3ccnc3)cc2)c1C (configuration not stated) | 43 (≈ 135 µM) |
| CC(CCc1ccccc1)NC(=O)COC(=O)c1cccs1 (configuration not stated) | > 47.6 |
| O=C(Cc1ccccc1)NCC(=O)OCc1ccccc1F | 17.3 (≈ 57.4 µM) |
| CC(CC(=O)O)CC(=O)Nc1ccc(Br)cc1 (configuration not stated) | > 45 |
| CCN(CC)C(=S)Nc1ccc(C(=O)OC)cc1 | > 40 |
| CC(C)C(NS(=O)(=O)c1cccc(C(F)(F)F)c1)C(=O)O (configuration not stated) | > 48.8 |
| CCCC(=O)Nc1ccc(C(=O)COC(=O)C2CC2)cc1 | 15.3 (≈ 52.9 µM) |
| COc1nc(Nc2ccccc2F)nc(OC)n1 | > 37.5 |
| Cc1cc(C)nc(NC(=O)c2cccc(Br)c2)n1 | 39.8 (≈ 130 µM) |
| O=C1NN=C(c2ccccc2)CC1c1c[nH]c2ccccc12 (configuration not stated) | > 43.4 |
| O=C1C2C3C=CC(CC3)C2C(=O)N1c1ccccc1[N+](=O)[O-] (configuration not stated) | 14.5 (≈ 48.6 µM) |
| Cc1ccc2c(c1)N(CC(=O)N1CCCCC1)C(=O)CO2 | > 43.3 |
| Cc1ccc(OCc2ccccc2C)c([N+](=O)[O-])n1 | 18.4 (≈ 71.2 µM) |
| CN(C(=O)C(Cl)Cl)C1CC2C=CC1C2 (configuration not stated) | 30.7 (≈ 131 µM) |
| COc1cccc(OCC(=O)Nc2ccncc2)c1 | > 38.7 |

| Compound | solubility kinetic [µg/mL] |
| --- | --- |
| O=c1[nH]c2cccc(F)c2n2cccc12 | 3.2 (≈ 15.8 µM) |
| CC(C)COc1ncnc2c1sc1nc3c(cc12)COC(C)(C)C3 | 3.7 (≈ 10.8 µM) |
| O=C(CNS(=O)(=O)c1ccccc1)N1CCCC1 | > 40.2 |
| O=C1NC(=O)C2(CCCCCCCCCCC2)N1 | 1.5 (≈ 5.94 µM) |
| C=CCc1cc(/C=C2/NC(=O)N(CC(=O)OC)C2=O)cc(OC)c1O | 11.9 (≈ 34.4 µM) |
| COc1ccc(S(=O)(=O)N2CCOCC2)cc1NC(=O)COC(=O)c1ccc([N+](=O)[O-])s1 | 14 (≈ 28.8 µM) |
| Cl.Oc1cccc(Nc2ncnc3c2oc2ccccc23)c1 | 2.3 |
| COc1ccc(S(=O)(=O)Nc2cc(S(=O)(=O)N3CCOCC3)ccc2OC)cc1 | 37.3 (≈ 84.3 µM) |
| COc1ccccc1-n1ccnc1SCC(=O)NCc1ccco1 | 48.4 (≈ 141 µM) |
| OCCC1CN(C2CCC2)CCN1Cc1ccc(F)c(F)c1 (configuration not stated) | 43 (≈ 139 µM) |
| N#Cc1ccc(CSc2ccccn2)c(Cl)c1 | 3.4 (≈ 13 µM) |
| CN(C)c1nc(Nc2ccc(F)cc2)nc(Oc2ccc(F)cc2)n1 | < 0.1 |
| Cc1ccc(C(=O)OCC(=O)NC2CC2)s1 | > 35.9 |
| O=C(CN1CCc2ccccc2C1)Nc1ccccc1Cl | 8.7 (≈ 28.9 µM) |
| Cc1nc2cc(NCc3cccs3)ccc2n1C | 31.9 (≈ 124 µM) |
| CC(=O)Nc1ccc(-n2c(C)ccc2-c2ccccc2)cc1 | 4.4 (≈ 15.2 µM) |
| CCOc1ccc(-c2nc(CCl)cs2)cc1.Cl | 8.5 |
| CCOC(=O)C1CCCN(C(=O)c2ccc3ncsc3c2)C1 (configuration not stated) | > 47.8 |
| Oc1cc2c(cc1CN1CCN(c3ccc(F)cc3)CC1)OCO2 | 5.7 (≈ 17.3 µM) |
| Cc1cccc(N2CCN(C(=O)c3cccs3)CC2)c1C | 23.8 (≈ 79.2 µM) |
| CC(N)C12CC3CC(CC(C3)C1)C2.Cl (configuration not stated) | > 32.4 |
| CN1CCN(C(=O)N(c2ccccc2)c2ccccc2)CC1.Cl | > 49.8 |

| Compound | solubility kinetic [µg/mL] |
| --- | --- |
| COc1cc(OC)c(C=O)c(OC(=O)N2CCOCC2)c1 | > 44.3 |
| CCN(C(=O)N1CCOCC1)c1ccccc1C | 26 (≈ 105 µM) |
| CC(=O)c1cccc(S(=O)(=O)NCCC(=O)O)c1 | 25.4 (≈ 93.6 µM) |
| COc1ccc(C(=O)Nc2c(C)cc(C)cc2C)cc1OC | > 44.9 |
| CCOc1ccc(NC(=O)CN(C)C(=O)C2CCCC2)cc1OCC | 37.6 (≈ 108 µM) |
| O=C(Nc1ccc(Cl)cc1Cl)N1CCN(c2ncccn2)CC1 | > 52.8 |
| O=C(COC(=O)c1ccccc1O)NCc1ccco1 | > 41.3 |
| CC(CC(=O)Nc1ccc2c(c1)OCO2)c1ccccc1 (configuration not stated) | 38.5 (≈ 136 µM) |
| Cc1ccc(C(=O)NCN2CCN(c3ccc(F)cc3)CC2)cc1 | > 49.1 |
| CN1C(=O)CCC(CCC(=O)O)(c2ccccc2O)C1=O (configuration not stated) | > 43.7 |
| O=C1CSC(c2cccnc2)N1CCc1ccccn1 (configuration not stated) | > 42.8 |
| O=C(O)CCNc1ccc(Cl)cc1 | > 29.9 |
| Cc1ccccc1N1C(=O)c2cccc3cccc(c23)C1=O | 2.5 (≈ 8.7 µM) |
| Cc1cnc(=O)[nH]c1SCc1ccc(C(F)(F)F)cc1 | 5.1 (≈ 17 µM) |
| COc1cccc(CNC(=O)COC(=O)C23CC4CC(CC(Cl)(C4)C2)C3)c1 | 21.1 (≈ 53.8 µM) |
| O=C(Nc1ccccc1)C(=O)Nc1cccnc1 | 6.9 (≈ 28.6 µM) |
| Cc1nc(SCc2ccc(C(=O)O)cc2)c2c(C)c(C)sc2n1 | 49.5 (≈ 144 µM) |
| O=Cc1c(N2CCSCC2)nc2ccccn2c1=O | > 41.3 |
| C=CCn1c(O)c(CN2CCCCC2)c(C)c(C#N)c1=O | > 43.1 |
| Cc1ccsc1C1CC(=O)Nc2ccccc2S1 (configuration not stated) | 35.6 (≈ 129 µM) |
| CC1CCCN(S(=O)(=O)c2ccc([N+](=O)[O-])cc2)C1 (configuration not stated) | 2.9 (≈ 10.2 µM) |
| CC1(c2ccccc2Cl)NC(=O)N(CC(=O)Nc2ccc(N3CCOCC3)cc2)C1=O (configuration not stated) | > 66.4 |

| Compound | solubility kinetic [µg/mL] |
| --- | --- |
| CCCC(=O)Nc1cc2c3c(c1)CC(=O)N3CCC2 | > 38.7 |
| COc1ccccc1-c1nc(=S)c(C(C)=O)c(C)[nH]1 | > 41.2 |
| COc1cc(C(=O)N[C@H](C(=O)OCC(=O)NC2CCCCCC2)C(C)C)cc(OC)c1OC | > 69.7 |
| CC(C)(C)C(=O)NC1CC2CCCC(C1)N2C(=O)Nc1ccccc1F (configuration not stated) | 6.1 (≈ 16.9 µM) |
| COc1ccc(C(=O)COC(=O)c2cccnc2SC)cc1 | < 0.7 |
| O=C1c2cccc3c(O)ccc(c23)C(=O)N1c1ccc(Cl)cc1 | 16.2 (≈ 50 µM) |
| CCC(C)(NC(=O)c1ccc2c(c1)OCO2)C(=O)NC1CCCCC1 (configuration not stated) | > 52 |
| O=C(NCCc1ccccn1)c1cncc(Br)c1 | > 45.9 |
| C[C@H](NC(=O)C(c1ccccc1)c1ccccc1)c1ccccc1 | 8.5 (≈ 26.9 µM) |
| COc1ccc(OC2CCN(C(=O)Nc3ccc(C)cc3)CC2)cc1 | 0.4 (≈ 1.18 µM) |
| O=C(NC1CCCCCCC1)c1cc([N+](=O)[O-])ccc1Cl | 8.5 (≈ 27.4 µM) |
| CC(=O)NC12CC3CC(C1)CC(C(=O)OCC(=O)c1cc(C)n(C)c1C)(C3)C2 | 49.5 (≈ 128 µM) |
| Cc1cccc(Nc2nc(-c3ccc(O)cc3O)cs2)n1 | 4.7 (≈ 15.7 µM) |
| O=C(Nc1cc([N+](=O)[O-])ccc1N1CCCC1)c1ccccc1 | 1.5 (≈ 4.82 µM) |
| COc1cc(OC)c(C(=O)O/N=C(\N)c2ccccc2)cc1OC | 45.7 (≈ 138 µM) |
| Cc1ccc(S(=O)(=O)NCCNC(=O)CN2CCOCC2)cc1 | 48.8 (≈ 143 µM) |
| Cc1ccsc1C(=O)OCC(=O)NCc1ccc(Cl)cc1 | 4.5 (≈ 13.9 µM) |
| Cc1onc(-c2ccccc2Cl)c1C(=O)N1CCCCC1 | > 45.7 |
| O=C(Nc1ccc(Br)cc1)N1CCc2ccccc2C1 | 1.1 (≈ 3.32 µM) |
| CCC(=O)c1ccc(OCC(O)CNC2CCCC2)cc1 (configuration not stated) | 35.6 (≈ 122 µM) |
| Cc1ccc(/C=C/C(=O)Nc2ccc(S(N)(=O)=O)cc2)o1 | > 46 |
